Assay results as given in patent US9938231B2, “Liquid arylbenzoyl benzoic acid ester derivatives for energy curable compositions” (SUN CHEMICAL CORPORATION, priority 2014, dated 2018).

Legend:
Assay type in all cases: physicochemical
[1] = Solubility stability of photoinitiator blends; details: for Behaviour of the solution upon cooling to room temperature: 1:1 mixture with dimethylaminobenzoic acid ethylhexyl ester, dissolved at 50° C.
Experimental: A 1:1 mixture in weight of 4-phenylbenzoyl benzoic acid ethylhexyl ester and dimethylaminobenzoic acid ethylhexyl ester was transformed into a solution by stirring at room temperature. […] As a comparison experiment, a 1:1 mixture of 4-phenylbenzophenone and dimethylaminobenzoic acid ethylhexyl ester was turned into a solution at elevated temperature of 50° C.

[2] = Solubility in propoxylated pentaerythritol tetraacrylate SR 494 LM (PPTTA); details: for Solubility in PPTTA: stirred 30 minutes at room temperature
Experimental: 4-phenylbenzophenone, 4-phenylbenzoyl benzoic acid ethylhexyl ester, and 4-phenylbenzoyl benzoic acid amyl ester were each separately added to the multifunctional acrylate propoxylated pentaerythritol tetraacrylate (SR 494 LM, Sartomer company) (PPTTA) in amounts of 2, 4, 6, and 8 weight % and stirred for 30 minutes at room temperature.

[3] = Solubility in di-pentaerythritol hexaacrylate (DPHA); details: for Solubility in DPHA: stirred 30 minutes at room temperature
Experimental: 4-phenylbenzophenone, 4-phenylbenzoyl benzoic acid ethylhexyl ester, and 4-phenylbenzoyl benzoic acid amyl ester were each added separately to the multifunctional acrylate di-pentaerythritol hexaacrylate (DPHA, Miwon Company) in amounts of 2, 4, 6, and 8 weight %, and stirred for 30 minutes at room temperature.

[4] = UV-spectra measurement (absorption maximum, molar extinction coefficient); details: ethyl acetate; for Molar extinction coefficient: at absorption maximum
Experimental: Spectra were acquired using a Unicam UV-2 UV/VIS spectrophotometer. All absorption spectra were obtained using 1 cm cuvettes, scanning within the 200-800 nm range. Solutions were prepared in a 100 cm^3 volumetric flask, and if required, subsequently diluted so that a maximum absorbance of less than 2 was obtained. From the absorption the molar extinction coefficient e was calculated in liter·mol^−1·cm^−1.

[5] = Viscosity of the neat ester; details: at 25° C.

Solubility in PPTTA ([2]; 2 weight % in PPTTA)	Solubility in PPTTA ([2]; 4 weight % in PPTTA)	Solubility in PPTTA ([2]; 6 weight % in PPTTA)	Solubility in PPTTA ([2]; 8 weight % in PPTTA)	Solubility in DPHA ([3]; 2 weight % in DPHA)	Solubility in DPHA ([3]; 4 weight % in DPHA)	Solubility in DPHA ([3]; 6 weight % in DPHA)	Solubility in DPHA ([3]; 8 weight % in DPHA)	Molar extinction coefficient [4]	Absorption maximum [4]	UV-spectroscopy: λ max [4]	State of the solution at 5° C. ([1]; 1:1 mixture in weight with dimethylaminobenzoic acid ethylhexyl ester)	Viscosity [5]	Structure (SMILES)	Behaviour of the solution upon cooling to room temperature [1]	Solubility in PPTTA compared with 4-phenyl benzophenone [2]	Solubility in DPHA compared with 4-phenyl benzophenone [3]
													COC(=O)c1ccccc1C(=O)c1ccc(-c2ccccc2)cc1 [4-phenylbenzoyl benzoic acid methyl ester]	instability and precipitation		
solution	solution	solution	solution	solution	solution	solution	solution	20100 liter · mol^−1 · cm · ^−1	287 (ethyl acetate) nm	287 nm	stayed liquid	12 Pa·s	CCCCC(CC)COC(=O)c1ccccc1C(=O)c1ccc(-c2ccccc2)cc1 (stereo not shown) [Example 9, 4-Phenylbenzoyl Benzoic Acid Ethyl Hexyl Ester]		better solubility than 4-phenyl benzophenone	better solubility than 4-phenyl benzophenone
solution	solution	solution	solution	solution	solution	solution	solution			286 nm		13 Pa·s	CCCCCOC(=O)c1ccccc1C(=O)c1ccc(-c2ccccc2)cc1 [Example 10, 4-Phenylbenzoyl Benzoic Acid Amyl Ester]		better solubility than 4-phenyl benzophenone	better solubility than 4-phenyl benzophenone
								24900 liter · mol^−1 · cm · ^−1	309 (ethyl acetate) nm	309 nm			CCCCC(CC)COC(=O)c1ccccc1C(=O)c1ccc(-c2ccc(-c3ccccc3)cc2)cc1 (stereo not shown) [Example 12, 4-Terphenoyl Benzoic Acid Ethylhexyl Ester]			

Structure (SMILES)	Solubility in PPTTA ([2]; 2 weight % in PPTTA)	Solubility in PPTTA ([2]; 4 weight % in PPTTA)	Solubility in PPTTA ([2]; 6 weight % in PPTTA)	Solubility in PPTTA ([2]; 8 weight % in PPTTA)	Solubility in DPHA ([3]; 2 weight % in DPHA)	Solubility in DPHA ([3]; 4 weight % in DPHA)	Solubility in DPHA ([3]; 6 weight % in DPHA)	Solubility in DPHA ([3]; 8 weight % in DPHA)	Molar extinction coefficient [4]	Absorption maximum [4]	UV-spectroscopy: λ max [4]	State of the solution at 5° C. ([1]; 1:1 mixture in weight with dimethylaminobenzoic acid ethylhexyl ester)	Viscosity [5]	Behaviour of the solution upon cooling to room temperature [1]	Solubility in PPTTA compared with 4-phenyl benzophenone [2]	Solubility in DPHA compared with 4-phenyl benzophenone [3]
O=C(c1ccccc1)c1ccc(-c2ccccc2)cc1 [Example 1, 4-phenyl benzophenone, reference compound]	solution	hazy	Solid residuals	Solid residuals	solution	solution	Hazy- opaque	Solid residuals						precipitated		
